Measured values taken from PMC10376843, “Discovery of Novel Myristic Acid Derivatives as N-Myristoyltransferase Inhibitors: Design, Synthesis, Analysis, Computational Studies and Antifungal Activity” (Antibiotics, 2023).
In brackets after ≈: the same amount, converted by molar mass. Where two headings read alike, the source gives them in different places.

Key:
[1] = biological target: N-Myristoyltransferase (NMT); assay: in vitro biochemical NMT inhibition assay (fluorescence detection of CoA); settings: 0.1 nM to 10,000 nM; excitation 380 nm, emission 470 nm
Protocol: The potency of the myristic acid derivatives was determined via an in vitro NMT assay. Coenzyme A (CoA) was detected as a byproduct of an enzymatic reaction. Fluorescence was measured at an excitation wavelength of 380 nm and an emission wavelength of 470 nm. In this assay, the intensity of fluorescence was […], giving a signal (Figure 7).
The NMT protein used in the study was from the supplier Ray Biotech. The assay was performed in 96-well black PP microplates with the myristic acid derivatives in concentrations ranging from 0.1 nM to 10,000 nM. The solutions were prepared in a buffer containing 20 mM of potassium phosphate (pH 7.9–8.0) and 0.5 mM of ethylenediaminetetraacetic acid (EDTA), 0.1% (v/v) Triton X-100, and a final concentration of 2.7% (v/v) dimethyl sulfoxide (DMSO). Fluorescence was measured at an excitation wavelength of 380 nm and an emission wavelength of 470 nm. These readings were obtained on an EnSight Multimode Microplate Reader, and we plotted the response vs. concentration (log nM), ranging from 0.1 nM to 10,000 nM, to obtain the IC50 values using Graph Pad Prism, according to the reported standard procedure.

[2] = system: Candida albicans (ATCC 10231); assay: antifungal micro-broth dilution assay, C. albicans; format: cell-based; settings: ATCC10231, 48 h
Protocol: (§1) A microbroth dilution method was used to test the synthesized compounds. In vitro tests for antifungal activity against Candida albicans (C. albicans) and Aspergillus niger (A. niger) were carried out in triplicate at concentrations ranging from 100 μg/mL to 6.25 μg/mL. The percentage cytotoxicity and MIC50 value for each compound were calculated from the observed absorbance measured at 590 nm, and the results are shown in Table 5. Fluconazole was used as a reference drug, and the antifungal activities were expressed as minimum inhibitory concentration (MIC50) values in μg/mL.
(§2) From HIMEDIA M210 Mumbai, India, test fungal strains were acquired. The conventional micro-broth dilution method was used to test the in vitro antifungal activity of the synthesized compounds against the fungi Candida albicans (ATCC 10231) and Aspergillus niger (ATCC 16888) from the American Type Culture Collection. The acquired fungal strains were used in the current experiment after being subcultured in SDB (Sabouraud dextrose broth). The 48 h young cultures were created and kept at 26 °C before the experiment.
(§3) According to the CLSI’s standard M27 recommended methodology, the SDB was treated with the compounds, which were dissolved in DMSO via the serial dilution method in sterile circumstances to achieve the necessary concentration levels. All the cultures that had been exposed to the compounds were serially diluted twice in growth media, inoculated to about 1 × 10^5 CFU/mL and incubated at 26 °C for 48 h. Subsequently, using a UV spectrophotometer, the absorbance at 590 nm of each culture was determined. The formula was used to compute the viability percentage.
(§4) Percentage viability = ([…]) × 100
(§5) The percentage inhibition was calculated using the formula (100 - cell viability) and plotted in the graph to determine the MIC50 value for each compound (Figure 8) and (Figure 9).
(§6) GraphPad Prism 8.0.2 software (San Diego, CA, USA) was used for statistical analysis. The MIC50 value was established via a nonlinear regression analysis.

[3] = system: Aspergillus niger (ATCC 16888); assay: antifungal micro-broth dilution assay, A. niger; format: cell-based; settings: read-out: MIC50 A. niger
Protocol: as §1, §2, §3, §4, §5, §6

[4] = ATCC 10231, 26 °C, 100 to 6.25 μg/mL, absorbance 590 nm, read-out: MIC50 C. albicans
[5] = ATCC16888, ATCC 16888, 48 h, 26 °C, 100 to 6.25 μg/mL, absorbance 590 nm

Row | SMILES | IC50 [1] [nM] | IC50 [2, 4] [µg/mL] | IC50 [3, 5] [µg/mL] | IC50 ([2]; read-out: MIC50 C. albicans, ATCC 10231, 26 °C, 100 to 6.25 μg/mL, absorbance 590 nm) [µg/mL] | IC50 ([3]; ATCC16888, 48 h) [µg/mL]
1 | CCCCCCCCCCCCCC(=O)NC1CCCCC1 [Compound 3m, N-cyclohexyltetradecanamide] | 863 | – | – | 15 to 22 (≈ 48.5 to 71.1 µM) | 14.7 (≈ 47.4 µM)
2 | CCCCCCCCCCCCCC(=O)N1CCOCC1 [Compound 3n, 1-morpholinotetradeca-1-one] | > 1500 | 27.6 (≈ 92.8 µM) | 31.4 (≈ 106 µM) | – | –
3 | CCCCCCCCCCCCCC(=O)N(C)c1ccccc1 [Compound 3o, N-methyl-N-phenyltetradecanamide] | > 1500 | 15 to 22 (≈ 47.2 to 69.3 µM) | 94.2 (≈ 297 µM) | – | –
4 | CCCCCCCCCCCCCC(=O)N(CC)c1ccccc1 [Compound 3q, N-ethyl-N-phenyltetradecanamide] | > 1500 | 28.4 (≈ 85.7 µM) | 28.5 (≈ 86.1 µM) | – | –
5 | CCCCCCCCCCCCCC(=O)Nc1nc(C)cs1 [Compound 3v, N-(4-methylthiazol-2-yl) tetradecanamide] | > 1500 | 32.4 (≈ 99.8 µM) | 22.1 (≈ 68.3 µM) | – | –
6 | OC(Cn1cncn1)(Cn1cncn1)c1ccc(F)cc1F [FLZ, Fluconazole, reference compound] | – | 17.8 (≈ 58 µM) | 16.3 (≈ 53.2 µM) | – | –
7 | CCCCCCCCCCCCCC(=O)O [Myristic acid] | 4210 | – | – | – | –

More lines, main results first:

Row | IC50 [1] [nM] | IC50 [2, 4] [µg/mL] | IC50 [3, 5] [µg/mL] | SMILES | IC50 ([2]; read-out: MIC50 C. albicans, ATCC 10231, 26 °C, 100 to 6.25 μg/mL, absorbance 590 nm) [µg/mL] | IC50 ([3]; ATCC16888, 48 h) [µg/mL]
8 | 1290 | 10.8 (≈ 33.9 µM) | 59.6 (≈ 188 µM) | CCCCCCCCCCCCCC(=O)Nc1cccc(C)c1 [Compound 3k, N-(m-tolyl) tetradecanamide] | – | –
9 | > 1500 | 15 to 22 (≈ 43.2 to 63.3 µM) | 75.9 (≈ 218 µM) | CCCCCCCCCCCCCC(=O)Nc1ccc(OCC)cc1 [Compound 3l, N-(4-ethoxyphenyl) tetradecanamide] | – | –
10 | > 1500 | 15 to 22 (≈ 49.4 to 72.5 µM) | 24.8 (≈ 81.6 µM) | CCCCCCCCCCCCCC(=O)Nc1ccccc1 [Compound 3p, N-phenyltetradecanamide] | – | –
11 | 1460 | 11.9 (≈ 37 µM) | 15.4 (≈ 48 µM) | CCCCCCCCCCCCCC(=O)Nc1ccc(F)cc1 [Compound 3r, N-(4-fluorophenyl) tetradecanamide] | – | –
12 | > 1500 | 38.8 (≈ 104 µM) | 34.3 (≈ 92.3 µM) | CCCCCCCCCCCCCC(=O)Nc1ccc(C(F)(F)F)cc1 [Compound 3s, N-(4-(trifluoromethyl)phenyl)tetradecanamide] | – | –
13 | 1000 | 12.9 (≈ 40.5 µM) | 17.4 (≈ 54.5 µM) | CCCCCCCCCCCCCC(=O)Nc1ccc(O)cc1 [Compound 3t, N-(4-hydroxyphenyl) tetradecanamide] | – | –
14 | 835 | 10.6 (≈ 34.9 µM) | 14.4 (≈ 47.2 µM) | CCCCCCCCCCCCCC(=O)Nc1ccccn1 [Compound 3u, N-(pyridine-2-yl) tetradecanamide] | – | –
